Results on one molecule are retold here after ChEMBL document CHEMBL1129343, “Retinoic acid receptor beta,gamma-selective ligands: synthesis and biological activity of 6-substituted 2-naphthoic acid retinoids” (J Med Chem, 1996).

Experiment [1] deals with T1, Retinoic acid receptor beta (Homo sapiens, UniProt P10826).
T1 sequence (P10826 whole entry): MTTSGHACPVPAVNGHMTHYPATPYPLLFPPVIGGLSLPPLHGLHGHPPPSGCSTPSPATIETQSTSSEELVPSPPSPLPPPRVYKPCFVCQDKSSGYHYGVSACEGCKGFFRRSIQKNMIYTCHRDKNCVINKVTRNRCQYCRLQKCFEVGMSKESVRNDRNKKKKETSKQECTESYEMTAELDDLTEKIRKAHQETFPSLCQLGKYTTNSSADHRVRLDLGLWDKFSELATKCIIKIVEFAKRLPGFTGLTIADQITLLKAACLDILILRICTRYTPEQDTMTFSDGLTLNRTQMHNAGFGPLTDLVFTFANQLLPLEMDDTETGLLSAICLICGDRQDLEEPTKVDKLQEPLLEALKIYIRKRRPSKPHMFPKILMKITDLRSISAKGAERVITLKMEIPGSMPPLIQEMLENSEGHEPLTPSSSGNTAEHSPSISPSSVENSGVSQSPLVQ
Nature of the experiment: Apparent binding constant for Retinoic acid receptor beta in HeLa cellGAL-4 transactivation assay. It counts as cell-based.

In experiment [2] the target is T2, Retinoic acid receptor alpha (Homo sapiens, UniProt P10276).
T2 sequence (P10276 whole entry): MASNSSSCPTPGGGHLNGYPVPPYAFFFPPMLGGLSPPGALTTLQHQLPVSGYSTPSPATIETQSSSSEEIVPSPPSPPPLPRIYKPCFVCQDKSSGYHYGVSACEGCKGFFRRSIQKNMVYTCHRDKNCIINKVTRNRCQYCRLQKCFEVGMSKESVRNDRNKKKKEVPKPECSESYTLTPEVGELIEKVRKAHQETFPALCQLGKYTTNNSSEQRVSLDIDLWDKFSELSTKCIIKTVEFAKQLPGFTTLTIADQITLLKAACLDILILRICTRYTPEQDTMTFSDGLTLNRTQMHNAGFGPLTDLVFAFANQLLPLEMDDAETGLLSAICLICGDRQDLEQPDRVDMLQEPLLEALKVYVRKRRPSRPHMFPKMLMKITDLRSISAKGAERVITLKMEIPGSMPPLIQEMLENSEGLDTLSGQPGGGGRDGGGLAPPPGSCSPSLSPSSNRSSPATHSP
The experiment is described as follows: Apparent binding constant against Retinoic acid receptor alpha in HeLa cell GAl-4 transactivation assay. It counts as cell-based.

In the case of `CC1(C)CCC(C)(C)c2cc(/C(=N/NS(C)(=O)=O)c3ccc4cc(C(=O)O)ccc4c3)ccc21`, the values for the Kd in experiment [1] and in experiment [2] were 1.27 µM and 11 µM, respectively.
